For one assay, the system named is F-actin in A549 cells. As to the kind of experiment: Fluorescent visualization of F-actin in A549 cells (Alexa Fluor 488 phalloidin). The settings on record: for concentration inducing actin depolymerization in A549 cells: 2 h incubation; for actin depolymerization in A549 cells: 100 μM, 2 h. The class given is cell-based, human. The protocol: The presence of the enone increased the severing efficiency of the analogs three-fold. […] We determined whether it was the depletion of actin filaments by analogs 2-5 which was responsible for the growth inhibition of A549 cells. Each of the compounds was incubated with A549 cells for 2 h at a concentration that exceeded the GI50 value by a factor of 5. The cells were then fixed, permeabilized and filamentous actin was visualized by fluorescence microscopy following Alexa Fluor 488 phalloidin staining. […] They induced depolymerization at 150 nM for bistramide A (1), 500 nM for analog 2 and 2 μM for analog 3. Analogs 4 and 5 induced depolymerization of actin only at concentrations as high as 100 μM. […] This observation was consistent with the enhanced cell-based activity of the compounds containing the C(1)-C(4) enone moiety.
Fluorescent Visualization Of F-Actin In Cells. A549 cells grown on coverslips were incubated with analogs 4-8 (100 μM) analog 3 (2 μM) or analog 2 (500 nM) or bistramide A (150 nM) in F-12K cell culture medium for 2 h, fixed with 3% formaldehyde in PBS at 25° C. for 5 min and permeabilized with 0.1% Triton X-100 at 25° C. for 10 min. After washing with PBS, coverslips were stained with Alexa Fluor 488 Phalloidin and visualized by fluorescence microscopy.

A further assay addresses filamentous actin (Oryctolagus cuniculus, UniProt P68135). In words: TIRF microscopy of actin filament severing and depolymerization. The class given is biochemical, rabbit. The settings on record: for Pointed-end depolymerization rate: standard deviations 0.1-0.3 subunits/s; for Barbed-end depolymerization rate: standard deviations 0.4-0.6 subunits/s; for severing of actin filaments compared to bistramide A (1): determined at 15 μM; for effect on actin depolymerization: concentrations as high as 200 μM. Set-up: Actin was purified from rabbit muscle acetone powder; tissue Pel-Freez Biologicals (acetone powder); host or cells: rabbit muscle acetone powder. The source says:
To gain further insight into the mode of action of bistramide A, we next investigated the interaction of the natural product and its analogs with filamentous actin. […] Similar observations have been reported for several other actin-binding natural products. However, this effect could provide only limited mechanistic information and may primarily reflect the binding of a small molecule to the filaments in close proximity to the dye and quenching of pyrene fluorescence, which could be independent of the rates of actin depolymerization. Some proteins like myosin and Actin Depolymerizing Factor (ADF)/Cofilin are known to do so. Total internal reflection fluorescence (TIRF) microscopy has recently emerged as a powerful tool to investigate actin filament dynamics and its regulation by several actin-binding proteins, as well as latrunculin A, which is […] depolymerizing filamentous actin in vitro. Thus, we decided to employ TIRF microscopy to observe in real time the effects of bistramide-based compounds on actin polymerization in vitro. We believe this is the first instance where TIRF microscopy has been utilized to study the severing of actin filaments by a small molecule. We polymerized G-actin containing 25% of tetramethylrhodamine-functionalized and 10% of biotin-functionalized actin. The resulting actin filaments were immobilized onto the streptavidin-coated glass slides (in a flow cell). Analogs 1-8 were flown through the flow cell and imaged by time-lapse TIRF microscopy.
Total Internal Reflection Fluorescence Microscopy. Actin filament severing was studied using a custom-built total internal reflection fluorescence microscope. Images were collected with a 100×, 1.45 NA objective (Olympus) and an EMCCD camera (iXon, Andor Technologies). Glass flow cell (6 μl volume) was washed with 0.25 mg/ml neutravidin in F-buffer (50 mM KCl, 1 mM MgCl2, 1 mM EGTA, 10 mM imidiazole, 2 mM ATP, 0.2 mM 2-mercaptoethanol, 2 min) and blocked with 1 mg/ml BSA in F-buffer (2 min). Ten microliters of 200 nM Mg^2+-F-actin (10% biotinylated, 25% labeled with maleimide-6-tetramethylrhodamine) in TIRF-buffer (50 mM KCl, 1 mM MgCl2, 1 mM EGTA, 10 mM imidiazole, 2 mM ATP, 4.5 mg/ml glucose, 0.5% 2-mercaptoethanol, 4.3 mg/ml glucose oxidase, 0.7 mg/ml catalase) was added to the flowcell and incubated for 2 min. The chamber was rinsed with TIRF-buffer and imaged. Compounds were freshly diluted from their DMSO stock solutions in TIRF-buffer and were added to the chamber immediately after the start of each experiment. Images were collected at 0.2-s exposures every 3 s for 200 frames. For kinetics studies, movies of suitable length were obtained for each of the analog concentrations. Analysis was performed using ImageJ.

The test system of a further assay is A549 cells. In words: Cell viability assay (CellTiter-Glo), growth inhibition of A549 cells. The class given is cell-based, human. The settings on record: 48 h incubation. The protocol:
Cell Viability Assays. All assays were performed using at least three replicate wells for each concentration tested. Original 10-25 mM DMSO stock solution of bistramide A or its analogs was diluted to 100 μM for analogs 4-8, 10 μM for analog 3, 5 μM for analog 2 and 1 μM for bistramide A (1) with F-12K cell culture media supplemented with 10% fetal bovine serum, 100 I.U./ml penicillin, 100 μg/ml streptomycin and 2 mM L-glutamine. Two-fold serial dilutions were performed and used for cell-based assays. A549 cells were grown in 96-well white plates at the density of 1,000 cells per well in 100 μl F-12K cell culture media. Cells were allowed to attach over 24 h and treated with 30 μl of the drug solution and incubated further for 48 h. After incubation, cell viability was determined using luminescence-based commercial kit (CellTiter-Glo, Promega) and luminescence measured using a Wallac Victor 3 plate reader. To measure cell growth inhibition, viability assays were performed twice: at initial time point T0 and after 48 h incubation (T48). Change in the number of viable cells was measured, and GI50 was calculated from sigmoidal plots. For analog 10, growth of A549 and PC3 cells was monitored over 96 h following addition of the drug. 100 μM was the highest concentration tested. At no point did the total DMSO conc. exceed 1%.
Background: ATP-based viability assays read luminescence as a measure of living cells.

Assay [1] addresses T1, G-actin (Oryctolagus cuniculus, UniProt P68135).
T1 construct: Actin was purified from rabbit muscle acetone powder; tissue Pel-Freez Biologicals (acetone powder); host or cells: rabbit muscle acetone powder
In words: Isothermal titration calorimetry, binding to monomeric actin. On the set-up: species or system rabbit. The settings on record: for pKd / Kd: isothermal titration calorimetry, 25° C.; for pKd: read-out: Kd. On the procedure: Isothermal Titration Calorimetry. A solution of rabbit skeletal muscle actin (5-10 μM) was titrated with bistramide A or its analog (50-100 μM) at 25° C. in buffer containing 2 mM Tris HCl, pH 8.0, 0.2 mM CaCl2, 0.01% NaN3, 0.2 mM ATP, 0.2 mM 2-mercaptoethanol. Dissociation constants were calculated from the binding curve using Origin analytical software (OriginLab) with the binding model involving a single set of identical sites
(In general: Isothermal titration calorimetry measures the heat released or taken up as one component is titrated into another.)

Assay [2] deals with T1, G-actin. As to the kind of experiment: Interaction with actin by MALDI-TOF (covalent modification). It counts as biochemical, rabbit. The settings on record: 1:1 actin-drug complex, 30 min. On the procedure: Interaction Of Bistramide-Based Compounds With Actin By MALDI-TOF. A 1:1 actin-drug complex was incubated for 30 min in 2 mM Tris-HCl, pH 8.0, 0.2 mM CaCl2, 0.01% NaN3, 0.2 mM ATP, 1 mM 2-mercaptoethanol, diluted with deionized water to 26 μM and mixed with an equal volume of a solution of 10 mg/ml sinapinic acid in 50% CH3CN— 0.1% TFA. MALDI spectra were obtained on a Voyager-DE PRO biospectrometry workstation.

Where [3] appears, read: Homo sapiens, A549, 48 h, read-out: GI50.
Where [4] appears, read: Homo sapiens, A549, 48 h, values of the text, read-out: GI50.

Structures are written as SMILES. pKd: −log10 of the molar value. Read-outs that look alike come from different tables or passages of the source.

Regarding `C=C[C@@H](C)CC[C@@H]1CCC[C@]2(CCC(C)[C@@H](CCCNC(=O)[C@@H](C)[C@@H](O)CNC(=O)CC3O[C@H](CC(=O)/C=C/C)CCC3C)O2)O1` (stereo partly drawn) [Analog 2], the “concentration inducing actin depolymerization in A549 cells” value in the assay with F-actin in A549 cells was determined as 0.5 µM. Besides, at filamentous actin (compound at 15 μM), the “No. of breaks per 100 μm” value is 41.8 per 100 μm, the Pointed-end depolymerization rate came out at 0.48 subunits/s and the Barbed-end depolymerization rate is 1.90 subunits/s. Also, the “severing of actin filaments compared to bistramide A (1)” value (“severing … compared to bistramide A (1)” below) on filamentous actin is reported as “severed actin filaments albeit with lesser efficiency”. Also, the “potency at severing filamentous actin relative to analog 4” value on filamentous actin (initial rate of severing, 1-15 μM) was “at least three times more potent at severing filamentous actin”. For the same molecule, the GI50 with A549 cells (setting [3]) is 87 nM. Moreover, the 50% growth inhibitory concentration (GI50) with A549 cells (setting [4]) amounted to 87.1 nM. Also, on G-actin [1], the pKd was 7.15. For the same molecule, the “covalent modification of G-actin” value at G-actin [2] is listed as “covalently modified G-actin”.
Turning to `C=CCC[C@@H]1CCC[C@]2(CCC[C@@H](CCCNC(=O)[C@@H](C)[C@@H](O)CNC(=O)CC3O[C@H](CC(=O)/C=C/C)CCC3C)O2)O1` (stereo partly drawn) [Analog 3], the “concentration inducing actin depolymerization in A549 cells” value with F-actin in A549 cells was found to be 2 µM. Also, at filamentous actin, the “concentration at which actin filaments were severed” value is 200 µM. For the same molecule, on filamentous actin (compound at 200 μM), the “No. of breaks per 100 μm” value is 13.3 per 100 μm, the Pointed-end depolymerization rate is reported as 0.57 subunits/s and the Barbed-end depolymerization rate was 1.84 subunits/s. Further, the GI50 in the assay with A549 cells (setting [3]) came to 323 nM. Moreover, in the assay on A549 cells (setting [4]), the GI50 came to 323 nM. In addition, at G-actin [1], the pKd was 5.82. Besides, the “covalent modification of G-actin” value at G-actin [2] is “covalently modified G-actin”.
Regarding `C=CC[C@@H]1CCCC(CC(=O)NC[C@H](O)[C@H](C)C(=O)NCCC[C@H]2O[C@@]3(CCC[C@@H](CC[C@H](C)C=C)O3)CCC2C)O1` (stereo partly drawn) [Analog 4], the “concentration inducing actin depolymerization in A549 cells” value with F-actin in A549 cells was determined as 100 µM. Besides, on filamentous actin (compound at 15 μM), the “No. of breaks per 100 μm” value was determined as 16.5 per 100 μm, the Pointed-end depolymerization rate is recorded as 0.51 subunits/s and the Barbed-end depolymerization rate came out at 1.92 subunits/s. For the same molecule, the “severing … compared to bistramide A (1)” value on filamentous actin was “severed actin filaments albeit with lesser efficiency”. For the same molecule, the GI50 in the assay with A549 cells (setting [3]) turned out to be 11200 nM. For the same molecule, the pKd on G-actin [1] is 6.50. On G-actin [2], the “covalent modification of G-actin” value is listed as “no cross-linking was observed”.
`C=C[C@@H](C)CC[C@@H]1CCC[C@]2(CCC(C)[C@@H](CCCNC(=O)[C@@H](C)[C@@H](O)CNC(=O)CCOC)O2)O1` (stereo partly drawn) [Analog 5]: the “concentration inducing actin depolymerization in A549 cells” value in the assay on F-actin in A549 cells worked out at 100 µM. Further, on filamentous actin (compound at 15 μM), the “No. of breaks per 100 μm” value was determined as 13.0 per 100 μm, the Pointed-end depolymerization rate stood at 0.55 subunits/s and the Barbed-end depolymerization rate is on record as 1.93 subunits/s. In addition, the “severing … compared to bistramide A (1)” value on filamentous actin was “severed actin filaments albeit with lesser efficiency”. Also, the concentration for 50% growth inhibition (GI50) in the assay with A549 cells (setting [3]) turned out to be 15100 nM. For the same molecule, the pKd at G-actin [1] is 7.37. Also, at G-actin [2], the “covalent modification of G-actin” value was “no cross-linking was observed”.
As to `C=CCC[C@@H]1CCC[C@]2(CCC[C@@H](CCCNC(=O)[C@@H](C)[C@@H](O)CNC(=O)CCOC)O2)O1` [Analog 6], the “actin depolymerization in A549 cells” value in the assay with F-actin in A549 cells was “No depolymerization was observed”. Also, at filamentous actin, the “concentration at which actin filaments were severed” value was determined as 200 µM. On filamentous actin (compound at 200 μM), the “No. of breaks per 100 μm” value amounted to 3.4 per 100 μm, the Pointed-end depolymerization rate is recorded as 0.41 subunits/s and the Barbed-end depolymerization rate came out at 2.29 subunits/s. The GI50 entry in the assay on A549 cells is recorded as “No cell -based activity”. In the assay with A549 cells (setting [3]), the GI50 is more than 100000 nM. The pKd at G-actin [1] is 6.17. In addition, at G-actin [2], the “covalent modification of G-actin” value is “no cross-linking was observed”.
Regarding `C=C[C@@H](C)CC[C@@H]1CCC[C@]2(CCC(C)[C@@H](CCCNC(C)=O)O2)O1` (stereo partly drawn) [Analog 7], the “actin depolymerization in A549 cells” value in the assay on F-actin in A549 cells was “No depolymerization was observed”. Further, on filamentous actin (compound at 200 μM), the “No. of breaks per 100 μm” value is 0.2 per 100 μm, the Pointed-end depolymerization rate is reported as 0.32 subunits/s and the Barbed-end depolymerization rate is given as 1.87 subunits/s. Also, the “effect on actin depolymerization” value on filamentous actin is “no effect on actin depolymerization”. Besides, in the assay with A549 cells, the GI50 result is listed as “No cell -based activity”. In addition, at G-actin [1], the “observable activity (actin binding by ITC and inhibition of A549 proliferation)” value is recorded as “neither the spiroketal (analog 7) nor the central amide subunit (analog 8) alone displayed any observable activity”; the Kd result is on record as “No actin binding”.
`COCCC(=O)NC[C@H](O)[C@H](C)C(=O)NCCCCC(C)C` [Analog 8]: the “actin depolymerization in A549 cells” value in the assay on F-actin in A549 cells is recorded as “No depolymerization was observed”. Also, on filamentous actin (compound at 200 μM), the “No. of breaks per 100 μm” value is “None”, the Pointed-end depolymerization rate stood at 0.21 subunits/s and the Barbed-end depolymerization rate stood at 2.15 subunits/s. Also, on filamentous actin, the “effect on actin depolymerization” value is “no effect on actin depolymerization”. Besides, the GI50 result in the assay on A549 cells is recorded as “No cell -based activity”. In addition, on G-actin [1], the “observable activity (actin binding by ITC and inhibition of A549 proliferation)” value was “neither the spiroketal (analog 7) nor the central amide subunit (analog 8) alone displayed any observable activity”; the Kd entry was “No actin binding”.

Broadly, the GI50 is the concentration at which growth is held to half of that of the control. The term pKd denotes −log10 of the Kd, conventionally taken in molar units.

Source of the values: patent US8350062B2, “Synthesis and anticancer activity of new actin-targeting small-molecule agents” (priority 2009, dated 2013).
